Assay results: PubChem BioAssay (NCI)
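Assay format: 96-well plates, 48-hour exposure. GI50: concentration for 50% inhibition of growth. TGI is the concentration that stops growth completely.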

How the values were obtained:
Test in all cases: NCI tumour cell line growth inhibition, 48 h
[1] = tested on: 786-0 renal
[2] = tested on: A498 renal
[3] = tested on: A549 NSCLC
[4] = tested on: ACHN renal
[5] = tested on: BT-549 breast
[6] = tested on: CAKI-1 renal
[7] = tested on: CCRF-CEM leukemia
[8] = tested on: COLO 205 colon
[9] = tested on: DU-145 prostate
[10] = tested on: EKVX NSCLC
[11] = tested on: HCC-2998 colon
[12] = tested on: HCT-116 colon
[13] = tested on: HCT-15 colon
[14] = tested on: HL-60(TB) leukemia
[15] = tested on: HOP-62 NSCLC
[16] = tested on: HOP-92 NSCLC
[17] = tested on: HS 578T breast
[18] = tested on: HT29 colon
[19] = tested on: IGROV1 ovarian
[20] = tested on: K-562 leukemia
[21] = tested on: KM12 colon
[22] = tested on: M14 melanoma
[23] = tested on: MALME-3M melanoma
[24] = tested on: MCF7 breast
[25] = tested on: MDA-MB-231 breast
[26] = tested on: MDA-MB-435
[27] = tested on: MOLT-4 leukemia
[28] = tested on: NCI-H23 lung
[29] = tested on: NCI-H460 lung
[30] = tested on: NCI/ADR-RES ovarian
[31] = tested on: OVCAR-4 ovarian
[32] = tested on: OVCAR-5 ovarian
[33] = tested on: OVCAR-8 ovarian
[34] = tested on: PC-3 prostate
[35] = tested on: RPMI-8226 leukemia
[36] = tested on: RXF 393 renal
[37] = tested on: SF-268 CNS
[38] = tested on: SF-295 CNS
[39] = tested on: SF-539 CNS
[40] = tested on: SK-MEL-2 melanoma
[41] = tested on: SK-MEL-28 melanoma
[42] = tested on: SK-MEL-5 melanoma
[43] = tested on: SK-OV-3 ovarian
[44] = tested on: SN12C renal
[45] = tested on: SNB-19 CNS
[46] = tested on: SNB-75 CNS
[47] = tested on: SR leukemia
[48] = tested on: SW-620 colon
[49] = tested on: T-47D breast
[50] = tested on: TK-10 renal
[51] = tested on: U251 CNS
[52] = tested on: UACC-257 melanoma
[53] = tested on: UACC-62 melanoma
[54] = tested on: UO-31 renal
[55] = tested on: LOX IMVI melanoma
[56] = tested on: NCI-H226 lung
[57] = tested on: NCI-H522 lung
[58] = tested on: OVCAR-3 ovarian

## C#C[C@]1(O)CC[C@H]2[C@@H]3CC=C4c5sc(Nc6cccc(F)c6)nc5CC[C@]4(C)[C@H]3CC[C@@]21C
[1]
  GI50: 0.371 µM
  TGI: 2.11 µM
[2]
  GI50: 0.368 µM
  TGI: 2.03 µM
[3]
  GI50: 2.73 µM
  TGI: 20.3 µM
[4]
  GI50: 1.35 µM
  TGI: 4.22 µM
[5]
  GI50: 0.456 µM
  TGI: 3.55 µM
[6]
  GI50: 1.03 µM
  TGI: 10.8 µM
[7]
  GI50: 0.534 µM
  TGI: 4.16 µM
[8]
  GI50: 1.83 µM
  TGI: 4.63 µM
[9]
  GI50: 1.49 µM
  TGI: 3.97 µM
[10]
  GI50: 1.65 µM
  TGI: 15.2 µM
[11]
  GI50: 2.41 µM
  TGI: 6.46 µM
[12]
  GI50: 0.982 µM
  TGI: 2.35 µM
[13]
  GI50: 1.45 µM
  TGI: 4.26 µM
[14]
  GI50: 0.618 µM
  TGI: 2.89 µM
[15]
  GI50: 2.15 µM
  TGI: 13.6 µM
[16]
  GI50: 2.19 µM
  TGI: 7.62 µM
[17]
  GI50: 0.364 µM
  TGI: 3.7 µM
[18]
  GI50: 1.52 µM
  TGI: 6.06 µM
[19]
  GI50: 1.95 µM
  TGI: 7.2 µM
[20]
  GI50: 0.677 µM
  TGI: 3.54 µM
[21]
  GI50: 1.89 µM
  TGI: 5.69 µM
[22]
  GI50: 1.31 µM
  TGI: 5.87 µM
[23]
  GI50: 1.49 µM
  TGI: 4.71 µM
[24]
  GI50: 0.963 µM
  TGI: 3.69 µM
[25]
  GI50: 1.94 µM
  TGI: 5.49 µM
[26]
  GI50: 1.65 µM
  TGI: 7.5 µM
[27]
  GI50: 0.306 µM
  TGI: 0.947 µM
[28]
  GI50: 1.95 µM
  TGI: 8.42 µM
[29]
  GI50: 1.16 µM
  TGI: 3.02 µM
[30]
  GI50: 2.32 µM
  TGI: 7.61 µM
[31]
  GI50: 2.59 µM
  TGI: 16.3 µM
[32]
  GI50: 1.76 µM
  TGI: 4.47 µM
[33]
  GI50: 3.04 µM
  TGI: 87.2 µM
[34]
  GI50: 0.659 µM
  TGI: 12.3 µM
[35]
  GI50: 0.204 µM
  TGI: 0.615 µM
[36]
  GI50: 0.0653 µM
  TGI: 0.328 µM
[37]
  GI50: 1.62 µM
  TGI: 7.5 µM
[38]
  GI50: 0.208 µM
  TGI: 0.499 µM
[39]
  GI50: 0.221 µM
  TGI: 1.06 µM
[40]
  GI50: 1.1 µM
  TGI: 4.45 µM
[41]
  GI50: 0.5 µM
  TGI: 2.06 µM
[42]
  GI50: 1.6 µM
  TGI: 3.22 µM
[43]
  GI50: 1.86 µM
  TGI: 10.1 µM
[44]
  GI50: 3.33 µM
  TGI: 13.1 µM
[45]
  GI50: 1.49 µM
  TGI: 3.88 µM
[46]
  GI50: 0.31 µM
  TGI: 6.08 µM
[47]
  GI50: 0.34 µM
  TGI: 2.96 µM
[48]
  GI50: 1.72 µM
  TGI: 4.5 µM
[49]
  GI50: 2.14 µM
  TGI: 13.8 µM
[50]
  GI50: 3.76 µM
  TGI: 15.7 µM
[51]
  GI50: 0.821 µM
  TGI: 3.88 µM
[52]
  GI50: 2.31 µM
  TGI: 17 µM
[53]
  GI50: 1.25 µM
  TGI: 3.87 µM
[54]
  GI50: 0.937 µM
  TGI: 2.79 µM

## C/C(=C(\c1ccc(O)cc1)c1ccc(OCCN2CCCCCC2)cc1)c1ccc(Cl)cc1
[1]
  GI50: 2.15 µM
  TGI: 8.4 µM
[2]
  GI50: 8.32 µM
  TGI: 14.9 µM
[3]
  GI50: 6.27 µM
  TGI: 18.4 µM
[4]
  GI50: 5.26 µM
  TGI: 10.8 µM
[5]
  GI50: 6.12 µM
  TGI: 13 µM
[6]
  GI50: 5.39 µM
  TGI: 11 µM
[7]
  GI50: 10.8 µM
  TGI: 45.8 µM
[8]
  GI50: 1.21 µM
  TGI: 2.99 µM
[9]
  GI50: 7.05 µM
  TGI: 13.2 µM
[10]
  GI50: 6.67 µM
  TGI: 12.8 µM
[11]
  GI50: 2.43 µM
  TGI: 8.05 µM
[12]
  GI50: 2.21 µM
  TGI: 9.11 µM
[13]
  GI50: 1.26 µM
  TGI: 3.95 µM
[14]
  GI50: 5.98 µM
  TGI: 14.3 µM
[15]
  GI50: 7.03 µM
  TGI: 15.7 µM
[16]
  GI50: 2.07 µM
  TGI: 9.62 µM
[17]
  GI50: 5.06 µM
  TGI: 14.1 µM
[18]
  GI50: 1.26 µM
  TGI: 4.59 µM
[19]
  GI50: 5.79 µM
  TGI: 11.9 µM
[20]
  GI50: 1.32 µM
  TGI: 6.03 µM
[21]
  GI50: 3.37 µM
  TGI: 9.28 µM
[55]
  GI50: 1.66 µM
  TGI: 6.55 µM
[22]
  GI50: 1.6 µM
  TGI: 6.17 µM
[23]
  GI50: 4.52 µM
  TGI: 9.89 µM
[24]
  GI50: 0.0385 µM
  TGI: 3.81 µM
[25]
  GI50: 7.02 µM
  TGI: 13.3 µM
[26]
  GI50: 5.36 µM
  TGI: 11.1 µM
[27]
  GI50: 1.69 µM
  TGI: 7.25 µM
[56]
  GI50: 5.39 µM
  TGI: 12.2 µM
[28]
  GI50: 5.52 µM
  TGI: 11.3 µM
[29]
  GI50: 2.2 µM
  TGI: 7.27 µM
[57]
  GI50: 7.43 µM
  TGI: 15 µM
[30]
  GI50: 5.57 µM
  TGI: 11.5 µM
[58]
  GI50: 6.11 µM
  TGI: 12.1 µM
[31]
  GI50: 4.83 µM
  TGI: 10.6 µM
[32]
  GI50: 5.78 µM
  TGI: 11.5 µM
[33]
  GI50: 6.94 µM
  TGI: 13.7 µM
[34]
  GI50: 2.8 µM
  TGI: 11.1 µM
[35]
  GI50: 1.86 µM
  TGI: 31 µM
[37]
  GI50: 5.8 µM
  TGI: 12.7 µM
[38]
  GI50: 4.79 µM
  TGI: 10.3 µM
[39]
  GI50: 4.67 µM
  TGI: 10 µM
[40]
  GI50: 7.59 µM
  TGI: 14.5 µM
[41]
  GI50: 4.94 µM
  TGI: 10.4 µM
[42]
  GI50: 6.48 µM
  TGI: 12.5 µM
[43]
  GI50: 7.74 µM
  TGI: 15 µM
[44]
  GI50: 5.86 µM
  TGI: 11.9 µM
[45]
  GI50: 6.27 µM
  TGI: 12.3 µM
[46]
  GI50: 6.02 µM
  TGI: 12 µM
[47]
  GI50: 1.28 µM
  TGI: 4.7 µM
[48]
  GI50: 3.17 µM
  TGI: 9.28 µM
[49]
  GI50: 1.19 µM
  TGI: 11.1 µM
[50]
  GI50: 6.99 µM
  TGI: 14 µM
[51]
  GI50: 3.28 µM
  TGI: 13.4 µM
[52]
  GI50: 7.39 µM
  TGI: 14.8 µM
[53]
  GI50: 6.35 µM
  TGI: 12.4 µM
[54]
  GI50: 4.53 µM
  TGI: 9.88 µM
